Tests used:
[1] = test system: PD-L1 (PD-L1 aAPC/CHO-K1 cells, Jurkat-PD-1-NFAT effector cells); experiment: Nuclear Factor of Activated T-cells (NFAT) assay; assay type: cell-based; details: Cricetulus griseus; PD-L1 aAPC/CHO-K1 + Jurkat-PD-1-NFAT cells, 24 hours
Protocol: Nuclear Factor of Activated T-cells (NFAT) Assay
PD-L1 aAPC/CHO-K1cells (Promega) were maintained in F-12 medium with addition of 10% FBS, 200 µg/mL Hygromycin B, 250 µg/mL Geneticin (G418). […] The culture media of PD-L1 aAPC/CHO-K1 cells were first replaced with assay medium (RPMI1640 medium with 1% FBS). The PD-L1 aAPC/CHO-K1cells were then added in a white 384-well white clear bottom assay plate (CELLCOAT® Tissue Culture Plates, Greiner Bio-One) at 8000 per well in 10 uL assay medium. […] 5 uL compounds in the assay medium were transferred to the cells with 0.4% DMSO in the final assay at 2 µM. After removing the culture media, 10,000 Jurkat-PD-1-NFAT effector cells in 5 µL assay medium was dispensed into each well. The assay plate was incubated at 37° C., 5% CO2 for 24 hours. […] After 8 minutes incubation at room temperature, luminescence was read at with Pherastar microplate reader (BMG Labtech). The fold of induction (FOI) was calculated based on the ratio of luminescence normalized to the DMSO wells within each assay plate. The maximum percentage of induction was reported based on the ratio between the highest FOI of each compound and the maximum FOI of control compound within each assay plate. Wells with DMSO were served as the negative controls and wells containing control compound with the highest FOI were used as positive controls. EC50 determination was performed by fitting the curve of percent control activity versus the log of the compound concentration using the GraphPad Prism 6.0 software.

[2] = molecular target: T1, PD-⅟PD-L1 (recombinant human PD-L1 protein and human PD-1 protein) (Homo sapiens, UniProt Q9NZQ7); experiment: Homogeneous Time-Resolved Fluorescence (HTRF) PD-1/PD-L1 binding assay; details: 3 nM PD1, 10 nM PD-L1, 25° C., PBS pH 7.4
T1 construct: Recombinant human PD-L1 protein (19-238) with a His-tag at the C-terminus; purchased AcroBiosystems PD1-H5229 (PD-L1); PD1-H5257 (PD-1)
T1 sequence (Q9NZQ7 19-238): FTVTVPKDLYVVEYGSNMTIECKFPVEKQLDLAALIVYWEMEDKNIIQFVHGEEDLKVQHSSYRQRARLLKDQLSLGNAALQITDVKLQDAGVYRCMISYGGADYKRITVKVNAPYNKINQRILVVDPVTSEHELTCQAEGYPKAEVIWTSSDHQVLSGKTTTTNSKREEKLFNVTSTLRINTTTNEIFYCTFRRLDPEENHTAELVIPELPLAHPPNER
Protocol: Homogeneous Time-Resolved Fluorescence (HTRF) PD-⅟PD-L1 Binding Assay
The assays were conducted in a standard black 384-well polystyrene plate with a final volume of 20 uL. Inhibitors were first serially diluted in DMSO and then added to the plate wells before the addition of other reaction components. The final concentration of DMSO in the assay was 1%. The assays were carried out at 25° C. in the PBS buffer (pH 7.4) with 0.05% Tween-20 and 0.1% BSA. […] PD-L1 and PD-1 proteins were diluted in the assay buffer and 10 uL was added to the plate well. Plates were centrifuged and proteins were preincubated with inhibitors for 40 minutes. The incubation was followed by the addition of 10 uL of HTRF detection buffer supplemented with Europium cryptate-labeled anti-human IgG (PerkinElmer-AD0212) specific for Fc and anti-His antibody conjugated to SureLight®-Allophycocyanin (APC, PerkinElmer-AD0059H). […] Final concentrations in the assay were - 3 nM PD1, 10 nM PD-L1, 1 nM europium anti-human IgG and 20 nM anti-His-Allophycocyanin. IC50 determination was performed by fitting the curve of percent control activity versus the log of the inhibitor concentration using the GraphPad Prism 5.0 software.

[3] = test system: PD-L1 (U2OS/PD-L1 cells, Jurkat-PD-1-SHP cells); experiment: Src Homology Region 2 Domain-containing Phosphatase (SHP) assay; assay type: cell-based; details: Homo sapiens; U2OS/PD-L1 + Jurkat-PD-1-SHP cells, 2 hours
Protocol: Example 1B. Src Homology Region 2 Domain-containing Phosphatase (SHP) Assay
U2OS/PD-L1 cells (DiscoveRx Corporation) were maintained in McCoy’s 5A medium with addition of 10% FBS, 0.25 µg/mL Puromycin. After removing the culture media, the cell medium was replaced with assay medium (RPMI1640 medium with 1% FBS). The U2OS/PD-L1 cells were then added in 384-well black clear bottom assay plate (CELLCOAT® Tissue Culture Plates, Greiner Bio-One) at 5000 cells per well in 20 uL assay medium. Test compounds were prepared by serial dilution in DMSO and 125 nL compound were first transferred to the 384 REMP plate well (Thermofisher) by ECHO liquid handler (Labcyte) followed with addition of 27.5 uL assay medium. 5 µL/well compounds in the assay medium were transferred to the cell plate with 0.05% DMSO in the final assay at 0.25 µM. Jurkat-PD-1-SHP cells (DiscoveRx Corporation) were cultured in RPMI1640 medium supplemented with 10% FBS, 250 µg/mL Hygromycin B, 500 µg/mL G418. After the replacement of culture media with assay medium, 5,000 Jurkat-PD-1-SHP cells in 20 µL were dispensed into each well. The assay plate was incubated at 37° C., 5% CO2 for 2 hours before 2.5 uL PathHunter reagent 1 (DiscoveRx Corporation) were added to each well. The assay plate was shaken for 1 min at 350 rpm in the dark followed with addition of 10 uL PathHunter reagent 2 (DiscoveRx Corporation). Chemiluminescent signal was recorded with TopCount reader (Perkin Elmer) after incubation at room temperature for 1 hour. Wells with DMSO were served as the positive controls and wells containing no cells were used as negative controls. IC50 determination was performed by fitting the curve of percentage of control activity versus the log of the compound concentration using the GraphPad Prism 6.0 software.

[4] = molecular target: T2, PD-L1 on CD14+ cells in human whole blood (Homo sapiens, UniProt Q9NZQ7); experiment: PD-L1 whole blood internalization assay; assay type: cell-based; details: 1 ng/mL interferon γ, CD14+ gated, 24 hour
T2 construct: Cells were gated on CD14+ (BD Biosciences) and PD-L1 expression determined by mean fluorescence intensity; host or cells: CD14+ cells in normal human whole blood, stimulated with human interferon gamma
T2 sequence (Q9NZQ7 19-290): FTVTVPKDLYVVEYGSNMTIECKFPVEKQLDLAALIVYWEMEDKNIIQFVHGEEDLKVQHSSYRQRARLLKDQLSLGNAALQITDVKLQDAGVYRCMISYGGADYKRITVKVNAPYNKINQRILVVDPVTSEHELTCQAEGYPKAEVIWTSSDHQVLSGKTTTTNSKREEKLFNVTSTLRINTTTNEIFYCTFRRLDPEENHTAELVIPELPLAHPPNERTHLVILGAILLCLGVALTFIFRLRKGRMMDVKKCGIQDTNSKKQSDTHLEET
Protocol: PD-L1 Whole Blood Internalization Assay
To determine PD-L1 internalization in human whole blood, normal human blood (Biological Specialty Corp, Colmar. PA) was incubated in the presence or absence of a concentration range of test compounds and 1 ng/mL human interferon γ (R&D Systems Inc. Minn. MN) in a 96 well “2 mL Assay Block” (Corning, Corning NY) for 18-20 hours at 37 °C. Blood was then stained with PD-L1 (MIH1, eBioscience; or BD Biosciences San Jose, CA), CD14 (Life Technologies, Carlsbad, CA) for 30 minutes in the dark at room temperature. Whole Blood/red cells were lysed/fixed (lysis buffer BD Biosciences) for 5 minutes at 37 °C in the dark and then centrifuged at 1600 RPM for 5 minutes. Cells were resuspended in Stain Buffer (BD Bioscience, San Jose, CA) and transferred into 96 well round bottom plates (Coming). Cells were gated on CD14+ (BD Biosciences) and PD-L1 expression determined by mean fluorescence intensity (MFI) (BD LSRFortessa® X-20). IC50 determination was performed by fitting the curve of compound percent inhibition versus the log of the compound concentration using the GraphPad Prism 7.0 software.

Row | SMILES | EC50 [1] [nM] | IC50 [2] [nM] | IC50 [3] [nM] | IC50 [4] [nM]
1 | Cc1c(NC(=O)c2nc3c(n2C)CCN(C[C@H]2CC[C@H](C(=O)O)CC2)C3)cccc1-c1cccc(NC(=O)c2nc3c(n2C)CCN(C)C3)c1Cl [Compound 15, trans-4-((2-(2′-chloro-3′-(1,5-dimethyl-4,5,6,7-tetrahydro-1H-imidazo[4,5-c]pyfidine-2-caiboxamido)-2-methylbiphenyl-3-ylcarbamoyl)-1-methyl-6,7-dihydro-1H-imidazo[4,5-c]pyridin-5(4H)-yl)methyl)cyclohexane-1-carboxylic acid] | < 100 | < 10 | < 10 | < 500
2 | Cc1c(-c2nc3c(Cl)cc(CNCCO)cn3n2)cccc1-c1cccc(NC(=O)c2ccc(CNCCO)cn2)c1Cl [Compound 2, N-(2-chloro-3′-(8-chloro-6-((2-hydroxyethylamino)methyl)-[1,2,4]triazolo[1,5-a]pyridin-2-yl)-2′-methylbiphenyl-3-yl)-5-((2-hydroxyethylamino)methyl)picolinamide] | < 500 | < 10 | < 100 | 
3 | Cc1cc(C(=O)Nc2cccc(-c3cccc(NC(=O)c4ccc(CN5CCCC5)cn4)c3Cl)c2C)ncc1CN1CCCC[C@H]1C(=O)O [Compound 9, (S)-1-((6-((2′-chloro-2-methyl-3′-(5-(pyrnolidin-1-ylmethyl)picolinamido)-[1,1′-biphenyl]-3-yl)carbamoyl)-4-methylpyridin-3-yl)methyl)piperidine-2-carboxylic acid] | < 100 | < 10 | < 10 | 
4 | Cc1c(NC(=O)c2ccc(CNCCO)cn2)cccc1-c1cccc(NC(=O)c2ccc(CNCCO)cn2)c1Cl [Compound 7, N,N′-(2-chloro-2′-methylbiphenyl-3,3′-diyl)bis(5-((2-hydroxyethylamino)methyl)picolinamide)] | < 100 | < 10 | < 10 | < 10
5 | Cc1c(NC(=O)c2nc3c(n2C)CCN(C[C@H]2CC[C@@H](C(=O)O)CC2)C3)cccc1-c1cccc(NC(=O)c2nc3c(n2C)CCN(C)C3)c1Cl [Compound 17, cis-4-((2-((2′-chloro-3′-(1,5-dimethyl-4,5,6,7-tetrahydro-1H-imidazo[4,5-c]pyfidine-2-caiboxamido)-2-methyl-[1,1′-biphenyl]-3-yl)caibamoyl)-1-methyl-1,4,6,7-tetrahydro-5H-imidazo[4,5-c]pyridin-5-yl)methyl)cyclohexane-1-carboxylic acid] | < 100 | < 10 | < 10 | < 100
6 | CN1CCc2c(nc(C(=O)Nc3cccc(-c4cccc(NC(=O)c5nc6c(n5C)CCN(CC[C@H]5CC[C@H](C(=O)O)CC5)C6)c4C#N)c3Cl)n2C)C1 [Compound 19, trans-4-(2-(2-((2′-chloro-2-cyano-3′-(1,5-dimethyl-4,5,6,7-tetrahydro-1H-imidazo[4,5-c]pyridine-2-carboxamido)-[1,1′-biphenyl]-3yl)carbamoyl)-1-methyl-1,4,6,7-tetrahydro-5H-imidazo[4,5-c]pyridin-5-yl)ethyl)cyclohexane-1-carboxylic acid] | < 100 | < 10 | < 10 | < 100
7 | Cc1c(Nc2nc(C(F)F)nc3cc(CN4CC[C@@H](O)C4)cnc23)cccc1-c1cccc(NC(=O)c2nc3c(n2C)CCN(CCC24CCC(C(=O)O)(CC2)C4)C3)c1Cl [Compound 34, (R)-4-(2-(2-((2-chloro-3′-((2-(difluoromethyl)-7-((3-hydroxypyrrolidin-1-yl)methyl)pyrido[3,2-d]pyrimidin-4-yl)amino)-2′-methyl-[1,1′-biphenyl]-3-yl)carbamoyl)-1-methyl-1,4,6,7-tetrahydro-5H-imidazo[4,5-c]pyridin-5-yl)ethyl)bicyclo[2.2.1]heptane-1-carboxylic acid] | < 10 | < 10 | < 10 | < 10
8 | C[C@@H](O)CN1CCc2c(nc(C(=O)Nc3cccc(-c4cccc(NC(=O)c5nc6c(n5C)CCN(CCC57CCC(C(=O)O)(CC5)C7)C6)c4Cl)c3Cl)n2C)C1 [Compound 29] | < 10 | < 10 | < 10 | < 100
9 | Cc1c(NC(=O)c2ccc(CN3CCC(C(=O)O)CC3)cn2)cccc1-c1cccc(NC(=O)c2ccc(CN3CC[C@@H](O)C3)cn2)c1Cl [Compound 8, (R)-1-((6-(2′-chloro-3′-(5-((3-hydroxypyrrolidin-1-yl)methyl)picolinamido)-2-methylbiphenyl-3-ylcarbamoyl)pyridin-3-yl)methyl)piperidine-4-carboxylic acid] | < 100 | < 10 | < 100 | 
10 | Cn1c(C(=O)Nc2cccc(-c3cccc(NC(=O)c4nc5c(n4C)CCN(CCC46CCC(C(=O)O)(CC4)C6)C5)c3C#N)c2Cl)nc2c1CCN(CCC13CCC(C(=O)O)(CC1)C3)C2 [Compound 33, 4,4′-(((((2-chloro-2′-cyano-[1,1′-biphenyl]-3,3′-diyl)bis(azanediyl))bis(carbonyl))bis(1-methyl-1,4,6,7-tetrahydro-5H-imidazo[4,5-c]pyridine-2,5-diyl))bis(ethane-2,1-diyl))bis(bicyclo[2.2.1]heptane-1-carboxylic acid)] | < 100 | < 10 | < 10 | < 100

From patent US20230149409A1, “TREATMENT OF HUMAN PAPILLOMAVIRUS-ASSOCIATED CANCERS BY PD-L1 INHIBITORS” (priority 2021, published 2023)
